Measurements reported in patent US10781203B2, “Nontoxic compounds for the treatment and prevention of herpesvirus infections” (The Penn State Research Foundation, priority 2016, dated 2020).

Columns and labels:
[1] = system: HCMV; assay: HCMV single-step growth curve / virus titer analysis (MOI=3); format: cell-based, Human cytomegalovirus (HCMV); conditions: for reduction in infectious virion production: MOI=3, titers at 96 hpi
Protocol: (§1) Infections were done at an MOI of 0.05 for multi-step growth curves and MOI 3 for single-step growth curves. Infections were done on NHDFs unless otherwise noted. Virus was incubated with cells for 2 hours before addition of fresh media. For growth curve analyses, virus was harvested at the indicated time-points for each experiment by scraping the cells into the medium, sonicating 10 times with 1 second pulses, vortexing for 15 seconds, and centrifuging at 13,000 rpm for 10 min. Supernatants were collected, aliquoted and flash-frozen in liquid nitrogen before storage at −80° C.
(§2) For MCMV growth curve analysis, samples were titrated on NIH 3T3 cells and titers were calculated using the 50% tissue culture infective dose method. Both HCMV virus stocks and samples for growth curves were titrated by serial dilutions on MRC5 cells and quantified by the immunological detection of immediate-early proteins as previously described (Britt W J. Human cytomegalovirus: propagation, quantification, and storage. Curr Protoc Microbiol. 2010; Chapter 14: Unit 14E.3). The numbers of stained nuclei were acquired on a Nikon Eclipse Ti Inverted microscope and fluorescent nuclei were quantified using the NIS Elements Software. Images of viral foci from infection of ARPE19 cells were also acquired on Eclipse Ti Inverted microscope. The number and size of foci were quantified using NIS Elements software.
^1H NMR spectra were recorded on a 500 MHz Bruker spectrometer (Billerica, Mass.) using tetramethylsilane (TMS) as the internal reference. The following abbreviations were used to designate chemical shift multiplicities: s=singlet, d=doublet, dd=double doublet, t=triplet, dt=doublet of triplet, m=multiplet. Mass Spec analysis was performed on 4000 Q trap hybrid triple quadrupole/linear ion trap instrument (Applied Biosystems/MDS Sciex) at the proteomic facility at Penn State Hershey Cancer Institute, Hershey, Pa. Thin-layer chromatography (TLC) was on aluminum-supported, precoated silica gel plates (EM Industries, Gibbstown, N.J.). 5-(2-methyl-3-thiazol-4-yl)-2-thiophencarboxaldehyde was purchased from MAYBRIDGE-Thermo Fisher (Cornwall, UK). All other starting materials were obtained from Aldrich Chemical Co. (Milwaukee, Wis.) and used without further purification. Retro94 was added to cells at 2 hpi at a concentration of 10 μM, unless otherwise indicated.

[2] = system: HCMV; assay: HCMV multi-step growth curve (MOI=0.05); format: cell-based, Human cytomegalovirus (HCMV); conditions: MOI 0.05 pfu/cell; 15 dpi; media exchanged and fresh drug added at 6 dpi
Protocol: as §1
as §2, with “software. […]” for “software.”

[3] = molecular target: T1, STX5 (Homo sapiens, UniProt Q13190); assay: Immunofluorescence detection of STX5 localization; format: cell-based
T1 construct: immunofluorescence detection of STX5 in uninfected (Mock) and HCMV-infected cells (96 hpi) in the presence of DMSO control or Retro94; endogenous in cells; host or cells: uninfected (mock) or HCMV-infected cells
T1 sequence (Q13190 1-355): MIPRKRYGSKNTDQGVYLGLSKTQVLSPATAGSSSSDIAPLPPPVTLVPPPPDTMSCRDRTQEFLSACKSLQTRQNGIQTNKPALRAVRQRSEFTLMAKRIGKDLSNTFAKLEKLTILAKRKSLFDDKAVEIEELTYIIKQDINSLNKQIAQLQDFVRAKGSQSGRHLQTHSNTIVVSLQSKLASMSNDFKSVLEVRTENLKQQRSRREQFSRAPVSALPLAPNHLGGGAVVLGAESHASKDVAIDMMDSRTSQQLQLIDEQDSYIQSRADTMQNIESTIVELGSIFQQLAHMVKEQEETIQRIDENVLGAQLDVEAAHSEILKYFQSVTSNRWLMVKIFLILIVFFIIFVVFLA
Protocol: Coverslips or chamber slides containing either uninfected or HCMV-infected cells were washed in phosphate-buffered saline (PBS) and fixed in 2% paraformaldehyde for 15 min at room temperature. Cells were blocked in PBS containing 10% human serum, 0.5% Tween-20, and 5% glycine. 0.1% Triton-X 100 was added for permeabilization. Primary and secondary antibodies as specified in the antibody section were diluted in blocking buffer. Nuclei were stained with DAPI prior to mounting with ProLong Diamond Antifade Mountant (ThermoScientific). For live-cell experiments using the pp28-mCherry virus, cells were grown on glass bottom microwell dishes (MatTek Corporation) and nuclei were stained with NucBlue Live Cell Stain ReadyProbes reagent (ThermoScientific). All images were acquired using a C2+ Confocal Microscope System (Nikon). Images were processed using NIS elements software. Images shown are volume renderings of Z-stacks.

[4] = system: Towne, TB40, Merlin and Toledo strains of HCMV; assay: Viral titers of fibroblasts infected with various strains of HCMV; format: cell-based, Human cytomegalovirus (HCMV); conditions: all four strains; MOI=0.05; treated at 2 hpi; 15 dpi
Protocol: (§3) FIG. 7A is a graph showing viral titers at 15 dpi of fibroblasts infected with various strains of HCMV (MOI=0.05) and treated with DMSO or Retro94 at 2 hpi. Media was changed and fresh Retro94 was added at 6 dpi. Bright field images representing CPE of above infections shown at right. FIG. 7B show HCMV-infected ARPE-19 cells (TB40, MOI=3) at 21 dpi treated with DMSO or Retro94 ([…]). Infected cells detected by monitoring mCherry (red) expressed by TB40 virus. Scale bars: 1 mm. The table below images show number of foci detected, average area and standard error of the mean. P<0.00001. […]
as §2, with “Images of viral foci from infection of ARPE19 cells were also acquired on Eclipse Ti Inverted microscope.” left out

[5] = system: HCMV-infected ARPE-19 cells (TB40); assay: Spread of HCMV TB40-mCherry in ARPE-19 cells (viral foci area); format: cell-based, Human cytomegalovirus (HCMV); conditions: TB40-mCherry MOI=3, 10 μM, three weeks after infection
Protocol: as §3
as §2, with “Images of viral foci from infection of ARPE19 cells were also acquired on Eclipse Ti Inverted microscope.” left out

[6] = system: MCMV; assay: Viral titers of MCMV-infected fibroblasts; format: cell-based, mouse; conditions: treated at 2 hpi; 6 dpi (FIG. 7C)
Protocol: as §3
as §2, with “Images of viral foci from infection of ARPE19 cells were also acquired on Eclipse Ti Inverted microscope.” left out

SMILES: Cc1nc(-c2ccc(C3N(C)c4ccccc4C(=O)N3c3ccccc3)s2)cs1 (stereo not shown) [Retro94, 1-Methyl-2-(5-(2-methylthiazol-4-yl)thiophen-2-yl)-3phenyl-2,3-dihydroquinazolin-4(1H)-one]
- IC50 ([1]; Human betaherpesvirus 5, added at 2 hpi, MOI 3, 96 hpi, read-out: IC50 (HCMV titers)): ~130 nM
- reduction of production of infectious virions ([1]; MOI 3 pfu/cell, added two hours after infection, 10 μM): greater than two
- reduction in infectious virion production ([1]; added at 2 hpi): two
- reduction in infectious virion production ([1]; added at 24 hpi): 20 fold
- reduction in infectious virion production ([1]; added at 48 hpi): 5 fold
- reduction in infectious virion production ([1]; added at 72 hpi): two
- dilution at which a significant inhibition in viral titers was first present ([1]; ten-fold dilutions added at 2 hpi, MOI 3, 96 hpi): 1 µM
- reduction in the amount of infectious virus produced [2]: five
- STX5 localization ([3]; HCMV-infected cells, 96 hpi): dispersed throughout the cell and was not located to the cVAC ring
- STX5 localization ([3]; uninfected cells): lost its Golgi-localization
- viral titers lower in the presence of compound [4]: two to three
- area of viral centers, DMSO treated versus compound treated cells [5]: more than twice
- decrease of MCMV titer [6]: ~3 logs
